From paper PMC4060991, “The Human Orphan Nuclear Receptor Tailless (TLX, NR2E1) Is Druggable” (PLoS ONE, 2014)
Where a name gives a salt, the structure may show the parent alone.

biological target: TLX LBD (Homo sapiens, UniProt Q9Y466); test: Differential scanning fluorimetry (DSF) on purified TLX LBD;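 note: thermal unfolding followed by Sypro-Orange fluorescence (excitation 465 nm, emission 610 nm) in 384-well plates, Tm taken from the first derivative of the denaturation curve, duplicate samples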; format: binding; set-up: cDNA fragments encoding human TLX LBD (a.a. 187–385) were cloned; His6 followed by TEV protease cleavage site (N); made in house; host or cells: E. coli BL21 (DE3) star; details: compound 500 µM
Sequence (Q9Y466 187-385): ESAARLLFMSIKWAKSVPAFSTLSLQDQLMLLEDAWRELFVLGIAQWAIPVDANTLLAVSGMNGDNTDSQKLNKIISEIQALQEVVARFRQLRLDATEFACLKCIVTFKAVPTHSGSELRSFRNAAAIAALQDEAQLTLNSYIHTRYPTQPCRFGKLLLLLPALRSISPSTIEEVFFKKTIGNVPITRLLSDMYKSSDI

Question: How did the “hit in DSF screen (able to bind TLX LBD, Tm shift 0.9°C or more), Table S1” value turn out when CC(=O)[O][Hg][c]1c(C)c(C)c(C)c(C)c1C [acetyloxy-(2,3,4,5,6-pentamethylphenyl)mercury] was run?
Answer: The value was “Hits from DSF”.

Question: How did the “hit in DSF screen (able to bind TLX LBD, Tm shift 0.9°C or more), Table S1” value turn out when Cc1ccc(S(=O)(=O)c2ccc([N+](=O)[O-])o2)cc1 [2-(4-methylphenyl)sulfonyl-5-nitrofuran] was run?
Answer: Its value is “Hits from DSF”.

Question: How did the “hit in DSF screen (able to bind TLX LBD, Tm shift 0.9°C or more), Table S1” value turn out when CCOC(=O)N1CCC(=C2c3ccc(Cl)cc3CCc3cccnc32)CC1 [Loratadine, reference compound] was run?
Answer: The value was “Hits from DSF”.

Question: How did the “hit in DSF screen (able to bind TLX LBD, Tm shift 0.9°C or more), Table S1” value turn out when Nc1ncnc2c1c(-c1cccc(OCc3ccccc3)c1)cn2C1CC(CN2CCCC2)C1 (stereo not shown) [NVP-ADW742] was run?
Answer: The value was “Hits from DSF”.

Question: C[C@]12CC[C@H]3[C@@H](CCC4=CC(=O)CC[C@@]43C)[C@@H]1CC[C@@H]2OC(=O)CCC1CCCC1 [Testosterone cypionate, reference compound] was tested. Which “hit in DSF screen (able to bind TLX LBD, Tm shift 0.9°C or more), Table S1” value did it give?
Answer: Its value is “Hits from DSF”.

Question: How did the “hit in DSF screen (able to bind TLX LBD, Tm shift 0.9°C or more), Table S1” value turn out when CCCCCCCCCCCCC(O)C(=O)O (stereo not shown) [2-hydroxytetradecanoic acid] was run?
Answer: Its value is “Hits from DSF”.

Question: Which “hit in DSF screen (able to bind TLX LBD, Tm shift 0.9°C or more), Table S1” value does the source give for CNC(=O)ON(C(C)=O)C(=O)NC [[acetyl(methylcarbamoyl)amino] N-methylcarbamate] here?
Answer: The value was “Hits from DSF”.

Question: CC(=O)[O][Pb]([O]C(C)=O)([c]1ccccc1)[c]1ccccc1 [[acetyloxy-di(phenyl)plumbyl] acetate] was tested. Which “hit in DSF screen (able to bind TLX LBD, Tm shift 0.9°C or more), Table S1” value did it give?
Answer: Its value is “Hits from DSF”.

Question: For Clc1ccccc1C(c1ccccc1)(c1ccccc1)n1ccnc1 [Clotrimazole, reference compound], which “hit in DSF screen (able to bind TLX LBD, Tm shift 0.9°C or more), Table S1” value is on record?
Answer: Its value is “Hits from DSF”.

Question: How did the “hit in DSF screen (able to bind TLX LBD, Tm shift 0.9°C or more), Table S1” value turn out when Cn1cc(-c2ccc3nnc(Sc4ccc5ncccc5c4)n3n2)cn1 [SGX-523] was run?
Answer: Its value is “Hits from DSF”.

Question: Which “hit in DSF screen (able to bind TLX LBD, Tm shift 0.9°C or more), Table S1” value does the source give for Acetyloxymercury; Phenanthrene here?
Answer: The value was “Hits from DSF”.

Question: With C[C@@H](NCCCc1cccc(C(F)(F)F)c1)c1cccc2ccccc12 [Cinacalcet hydrochloride, reference compound] as the compound, how does the “hit in DSF screen (able to bind TLX LBD, Tm shift 0.9°C or more), Table S1” value read?
Answer: The value was “Hits from DSF”.

Question: For CCC1=C[C@@H]2CN(C1)Cc1c([nH]c3ccccc13)[C@@](C(=O)OC)(c1cc3c(cc1OC)N(C)[C@H]1[C@@](O)(C(=O)OC)[C@H](OC(C)=O)[C@]4(CC)C=CCN5CC[C@]31[C@@H]54)C2 [Vinorelbine, reference compound], which “hit in DSF screen (able to bind TLX LBD, Tm shift 0.9°C or more), Table S1” value is on record?
Answer: The value was “Hits from DSF”.

Question: FC(F)c1nc2ccccc2n1-c1nc(N2CCOCC2)nc(N2CCOCC2)n1 [ZSTK474] was tested. Which “hit in DSF screen (able to bind TLX LBD, Tm shift 0.9°C or more), Table S1” value did it give?
Answer: Its value is “Hits from DSF”.

Question: How did the “hit in DSF screen (able to bind TLX LBD, Tm shift 0.9°C or more), Table S1” value turn out when CC(C)c1cnn2c(NCc3ccccc3)cc(NCCCCCCN)nc12 [N5-(6-Aminohexyl)-3-isopropyl-N7-benzylpyrazolo[1,5-a]pyrimidine-5,7-diamine] was run?
Answer: The value was “Hits from DSF”.

Question: COc1cc(Nc2ncc3c(n2)-c2ccc(Cl)cc2C(c2c(F)cccc2OC)=NC3)ccc1C(=O)O [MLN8237] was tested. Which “hit in DSF screen (able to bind TLX LBD, Tm shift 0.9°C or more), Table S1” value did it give?
Answer: Its value is “Hits from DSF”.

Question: With CC(C)C1(Cl)CCC2C3(C)CCCC(C)(C(=O)O)C3CC(Cl)C2(Cl)C1Cl (stereo not shown) [7,8,8a,9-tetrachloro-1,4a-dimethyl-7-propan-2-yl-2,3,4,4b,5,6,8,9,10,10a-decahydrophenanthrene-1-carboxylic acid] as the compound, how does the “hit in DSF screen (able to bind TLX LBD, Tm shift 0.9°C or more), Table S1” value read?
Answer: Its value is “Hits from DSF”.

Question: With CCCCCC(CN1CCOCC1)C(=O)C=Cc1ccccc1 (stereo not shown) [4-(morpholin-4-ylmethyl)-1-phenylnon-1-en-3-one] as the compound, how does the “hit in DSF screen (able to bind TLX LBD, Tm shift 0.9°C or more), Table S1” value read?
Answer: Its value is “Hits from DSF”.

Question: For CCN1CCN(C(=O)Cc2ccc(Nc3ncc(F)c(Nc4ccc(C(=O)Nc5ccccc5Cl)cc4)n3)cc2)CC1 [Aurora A Inhibitor I], which “hit in DSF screen (able to bind TLX LBD, Tm shift 0.9°C or more), Table S1” value is on record?
Answer: Its value is “Hits from DSF”.

Question: How did the “hit in DSF screen (able to bind TLX LBD, Tm shift 0.9°C or more), Table S1” value turn out when CC(=O)OC(C)(C)/C=C/C(=O)[C@](C)(O)[C@H]1[C@H](O)C[C@@]2(C)[C@@H]3CC=C4[C@@H](C[C@H](O)C(=O)C4(C)C)[C@]3(C)C(=O)C[C@]12C [[(E,6R)-6-[(2S,8S,9R,10R,13R,14S,16R,17R)-2,16-dihydroxy-4,4,9,13,14-pentamethyl-3,11-dioxo-2,7,8,10,12,15,16,17-octahydro-1H-cyclopenta[a]phenanthren-17-yl]-6-hydroxy-2-methyl-5-oxohept-3-en-2-yl] acetate] was run?
Answer: Its value is “Hits from DSF”.

Question: With N#C/C(=C\c1ccc2ccccc2c1)C(=O)c1ccccc1 [(E)-2-(benzoyl)-3-naphthalen-2-ylprop-2-enenitrile] as the compound, how does the “hit in DSF screen (able to bind TLX LBD, Tm shift 0.9°C or more), Table S1” value read?
Answer: Its value is “Hits from DSF”.

Question: Which “hit in DSF screen (able to bind TLX LBD, Tm shift 0.9°C or more), Table S1” value does the source give for O=C(CCc1ccc(O)cc1)c1c(O)cc(O)cc1O [Phloretin] here?
Answer: The value was “Hits from DSF”.

Question: How did the “hit in DSF screen (able to bind TLX LBD, Tm shift 0.9°C or more), Table S1” value turn out when CC(=O)[C@H]1CC[C@H]2[C@@H]3CCC4=CC(=O)CC[C@]4(C)[C@H]3CC[C@]12C [Progesterone, reference compound] was run?
Answer: The value was “Hits from DSF”.

Question: O=C(c1ccc(OCCN2CCCCC2)cc1)c1c(-c2ccc(O)cc2)sc2cc(O)ccc12 [Raloxifene, reference compound] was tested. Which “hit in DSF screen (able to bind TLX LBD, Tm shift 0.9°C or more), Table S1” value did it give?
Answer: Its value is “Hits from DSF”.

Question: O=C1c2ccccc2C(=O)C1C(c1ccc([N+](=O)[O-])cc1)C1C(=O)c2ccccc2C1=O [2-[(1,3-dioxoinden-2-yl)-(4-nitrophenyl)methyl]indene-1,3-dione] was tested. Which “hit in DSF screen (able to bind TLX LBD, Tm shift 0.9°C or more), Table S1” value did it give?
Answer: Its value is “Hits from DSF”.

Question: CO[C@H]1C[C@@H]2CC[C@@H](C)[C@@](O)(O2)C(=O)C(=O)N2CCCC[C@H]2C(=O)O[C@H]([C@H](C)C[C@@H]2CC[C@@H](OP(C)(C)=O)[C@H](OC)C2)CC(=O)[C@H](C)/C=C(\C)[C@@H](O)[C@@H](OC)C(=O)[C@H](C)C[C@H](C)/C=C/C=C/C=C/1C [Deforolimus] was tested. Which “hit in DSF screen (able to bind TLX LBD, Tm shift 0.9°C or more), Table S1” value did it give?
Answer: The value was “Hits from DSF”.

Question: How did the “hit in DSF screen (able to bind TLX LBD, Tm shift 0.9°C or more), Table S1” value turn out when CC[C@H](CO)Nc1nc(NCc2ccccc2)c2ncn(C(C)C)c2n1 [Roscovitine (CYC202), Roscovitine] was run?
Answer: The value was “Hits from DSF”.

Question: With O=[N+]([O-])c1cc(C(F)(F)F)cc([N+](=O)[O-])c1CCl [2-(chloromethyl)-1,3-dinitro-5-(trifluoromethyl)benzene] as the compound, how does the “hit in DSF screen (able to bind TLX LBD, Tm shift 0.9°C or more), Table S1” value read?
Answer: The value was “Hits from DSF”.

Question: How did the “hit in DSF screen (able to bind TLX LBD, Tm shift 0.9°C or more), Table S1” value turn out when CC(=O)N1CCN(c2ccc(OCC3COC(Cn4ccnc4)(c4ccc(Cl)cc4Cl)O3)cc2)CC1 (stereo not shown) [Ketoconazole, reference compound] was run?
Answer: Its value is “Hits from DSF”.

Question: Which “hit in DSF screen (able to bind TLX LBD, Tm shift 0.9°C or more), Table S1” value does the source give for [Cl][Cd][Cl] [Dichlorocadmium] here?
Answer: The value was “Hits from DSF”.

Question: Which “hit in DSF screen (able to bind TLX LBD, Tm shift 0.9°C or more), Table S1” value does the source give for CC(C)n1c(/C=C/C(O)CC(O)CC(=O)O)c(-c2ccc(F)cc2)c2ccccc21 (stereo not shown) [Fluvastatin Sodium, reference compound] here?
Answer: The value was “Hits from DSF”.

Question: For Daptomycin [reference compound], which “hit in DSF screen (able to bind TLX LBD, Tm shift 0.9°C or more), Table S1” value is on record?
Answer: The value was “Hits from DSF”.

Question: With N#Cc1c(O)c2c(-c3ccc(-c4ccccc4O)cc3)csc2[nH]c1=O [6,7-Dihydro-4-hydroxy-3-(2'-hydroxy[1,1'-biphenyl]-4-yl)-6-oxo-thieno[2,3-b]pyridine-5-carbonitrile] as the compound, how does the “hit in DSF screen (able to bind TLX LBD, Tm shift 0.9°C or more), Table S1” value read?
Answer: The value was “Hits from DSF”.

Question: How did the “hit in DSF screen (able to bind TLX LBD, Tm shift 0.9°C or more), Table S1” value turn out when CO[C@H]1C[C@@H]2CC[C@@H](C)[C@@](O)(O2)C(=O)C(=O)N2CCCC[C@H]2C(=O)O[C@H]([C@H](C)C[C@@H]2CC[C@@H](OCCO)[C@H](OC)C2)CC(=O)[C@H](C)/C=C(\C)[C@@H](O)[C@@H](OC)C(=O)[C@H](C)C[C@H](C)/C=C/C=C/C=C/1C [Everolimus (RAD001), Everolimus, reference compound] was run?
Answer: The value was “Hits from DSF”.
